Measurements as given in patent US20230255974A1, “USE OF THYROMIMETICS FOR THE TREATMENT OF CANCER” (THE UNIVERSITY OF VERMONT, priority 2020, published 2023).

Tests used:
[1] = test system: SW1736 cells (SW-EV, SW-TRβ); experiment: RNA-seq gene expression in SW-EV and SW-TRβ; type: cell-based, human
Procedure: RNA-seq Library Construction and Quality Control. 80% confluent monolayers of SW-EV and SW-TRβ cells were hormone starved for 24 hours in phenol red free RPMI with charcoal-stripped fetal bovine serum. 10^−8M T3 was added and incubated for 24 hours prior to sample collection. Total RNA was extracted and purified using RNeasy Plus Kit (Qiagen) according to manufacturer's protocol. Purity of the total RNA samples was assessed via BioAnalyzer (Agilent) and samples with a RIN score >7 were used for library construction. rRNA was depleted using 1 μg of total RNA with the RiboErase kit (KAPA Biosystems). Strand-specific Illumina cDNA libraries were prepared using the KAPA Stranded RNA-Seq library preparation kit with 10 cycles of PCR (KAPA Biosystems). Library quality was assessed by BioAnalyzer (Agilent) to ensure an average library size of 300 bp and the absence of excess adaptors in each sample. RNA-Seq libraries were pooled and sequenced on the Illumina HiSeq 1500 with 50 bp single-end reads. Quality scores across sequenced reads were assessed using FASTQC. […] For alignment and transcript assembly, the sequencing reads were mapped to hg38 using STAR. Sorted reads were counted using HTSeq and differential expression analysis was performed using DESeq2.

[2] = test system: SW1736 cells (SW-EV, SW-TRβ); experiment: Soft agar colony formation assay; type: cell-based, human; settings: 10^−8 M T3, 14 days
Procedure: Soft Agar Colony Formation Assay. Soft agar colony forming assays were used to assess anchorage-independent growth. A layer 0.50% agar in thyroid media (as described) was solidified in 6-well cell culture plates. SW-EV or SW-TRβ cells were plated in a second layer of 0.25% agar in thyroid media. 200 uL of thyroid media was maintained at the top of each well to prevent the agar from drying. […] Colonies were allowed to grow for 14 days. Live SW-EV and SW-TRβ colonies were detected via GFP expression using a ChemiDoc XRS+ (Bio-Rad Laboratories). Colonies were then counted with ImageJ using the Colony Counter plugin.

N[C@@H](Cc1cc(I)c(Oc2ccc(O)c(I)c2)c(I)c1)C(=O)O [T3, (2S)-2-amino-3-[4-(4-hydroxy-3-iodophenoxy)-3,5-diiodophenyl]propanoic acid]
expression of epithelial marker CDH1 ([1]; SW1736-TRβ, T3 treated): increased expression | expression of mesenchymal marker VIM ([1]; SW1736-TRβ, T3 treated): decreased | expression of cluster 1 genes in the ILK signaling IPA pathway ([1]; SW-EV and SW-TRβ, T3): repressed | thyroid differentiation markers ([1]; SW-TRβ, T3 treated): significantly induced | thyroid differentiation score (TDS) ([1]; SW-TRβ, T3 treated): significantly higher TDS | expression of thyroid-specific cancer stem cell genes ALDH, POU5F1, CD44, FUT4, PROM1 ([1]; TRβ overexpression and T3, RNA-seq): significantly reduced expression of the thyroid-specific cancer stem cell genes | anchorage-independent colony growth ([2]; SW-EV): reduced anchorage-independent colony growth | anchorage-independent colony growth ([2]; SW-TRβ): nearly ablated colony growth
